Assay results reported in US9949938B2, “CoQ10 (ubiquinone, ubiquinol), vitamin A (retinoid acid, retinol), vitamin E (tocotrienol, tocopherol) and methods of use” (AMERICAN RIVER NUTRITION, priority 2013, dated 2018).

Columns and labels:
[1] = CoQ10 with and without tocotrienol in hydrochloric acid (pH<2), 30 minutes, simulated gastric conditions; assay type: physicochemical; conditions: in the presence of tocotrienol versus without; HCl pH<2, 30 minutes
Method: 100 mg CoQ10 (ubiquinone or ubiquinol), with and without tocotrienol, was placed in a beaker with acid (hydrochloric acid) (pH<2) for 30 minutes to simulate gastric conditions.

[2] = gastric conditions, pH<2, 30 minutes; cited from earlier work

CoQ10 content (both ubiquinone or ubiquinol) after acid [1] | SMILES | ubiquinol converted to ubiquinone [2]
higher content | COC1=C(OC)C(=O)C(C/C=C(\C)CC/C=C(\C)CC/C=C(\C)CC/C=C(\C)CC/C=C(\C)CC/C=C(\C)CC/C=C(\C)CC/C=C(\C)CC/C=C(\C)CCC=C(C)C)=C(C)C1=O [CoQ10, 2,3-dimethoxy-5-methyl-6-decaprenil-1,4-benzoquinone] | 
 | COc1c(O)c(C)c(C/C=C(\C)CC/C=C(\C)CC/C=C(\C)CC/C=C(\C)CC/C=C(\C)CC/C=C(\C)CC/C=C(\C)CC/C=C(\C)CC/C=C(\C)CCC=C(C)C)c(O)c1OC [ubiquinol] | about 50%
